Assay results as given in US20240132491A1, “INDOLINE COMPOUND” (MEDSHINE DISCOVERY INC., priority 2021, published 2024).

Assays:
[1] = In vivo pharmacokinetics study in mice; set-up: species or system C57BL/6 mice; conditions: male, C57BL/6, plasma, mouse
Description: Male C57BL/6 mice were used as test animals, and the drug concentration in plasma at different times after intragastric administration of the test compound was determined by LC/MS/MS method. The pharmacokinetic behavior of the test compounds in mice in vivo was studied to evaluate their pharmacokinetic characteristics.
Test animals: Healthy male C57BL/6 mice. Drug preparation: For the IV group, the vehicle was 5% DMSO+95% (20% hydroxypropyl-β-cyclodextrin); for the PO group, the vehicle was 5% DMSO+95% (20% HP-β-CD). Administration: The dosage of the test compound was 1 mg/kg for the IV group, and 10 mg/kg or 30 mg/kg for the PO group (note: the PO group was fasted overnight before administration).
Experimental operations: After administration, whole blood was collected for a certain period of time and prepared into plasma. The drug concentration was analyzed by the LC-MS/MS method, and the pharmacokinetic parameters were calculated using Phoenix WinNonlin software (Pharsight, USA)

PD-1/PD-L1 = PD-1/PD-L1 (Homo sapiens (Human), UniProt Q9NZQ7); assay: NFAT assay: TCR Activitor/PD-L1 CHO cells co-cultured with PD-1/NFAT Reporter-Jurkat cells, Bright-Glo readout; type: cell-based; conditions: PD-L1 CHO / PD-1 NFAT Reporter-Jurkat co-culture, 5 hours
Description: PD1:PD-L1 TR-FRET assay kit, purchased from BPS Biosciences. Bright-Glo reagents purchased from Promega. Nivo multimode microplate reader (PerkinElmer)
TCR Activitor/PD-L1 CHO cells with a growth confluence of 80% were seeded at 35,000 cells per well in a plate and then incubated overnight in a 37° C. cell culture incubator. The compound to be tested was 5-fold diluted with a pipette to the 8th concentration, i.e., from 100 μmol to 1.28 nmol, with a DMSO concentration of 100%. Experiments were set up in duplicate wells. 147 μL of culture medium was added to an intermediate plate, and then 3 μL of gradient diluted compound per well was transferred to the intermediate plate according to the corresponding position, resulting in compound concentrations ranging from 2 μmol to 0.0256 nmol with a DMSO concentration of 2%. The T cell receptor/PD-L1 CHO cell supernatant was discarded, and 50 μL of compound working solution was added to each well, followed by incubation at 37° C. for 30 minutes. After incubation, 50 μL of a PD-1/NFAT Reporter-Jurkat cell suspension at a density of 4×10^5/mL was added to each well, and the plate was incubated at 37° C. for 5 hours. After the incubation, 100 μL of Bright-Glo was added to each well. After mixing, chemiluminescence signals were read using a Nivo the multimode microplate reader.
Raw data was converted into inhibition rate using the equation: (Sample−Min)/(Max−Min)*100%. The IC50 value could then be derived by performing a curve fit using a four-parameter logistic model (obtained using the “log(inhibitor) vs. response—Variable slope” mode in GraphPad Prism). The degree of inhibition of the compound on PD-1/PD-L1 was calculated using the equation (Max−Min)/Min. The higher the multiple, the stronger the inhibition of the PD-1/PD-L1 pathway.

MC38-hPD-L1 colon cancer = assay: Drug efficacy in MC38-hPD-L1 colon cancer model of B-hPD-L1 humanized mice; type: in vivo; conditions: compounds 20 to 50 mg/kg p.o. BID 21 days; atezolizumab 5 mg/kg i.p. TIW 10 times
Description: Mouse colon cancer MC38 cells were purchased from Shunran Shanghai Biotech Co., Ltd. Biocytogen (Beijing) Co. Ltd genetically modified the MC38 cells to express human PD-L1, and named it MC38-hPD-L1. These cells were adherent cells, cultured in a 37° C., 5% CO2 incubator. The culture medium composition was Dulbecco's Modified Eagle's Medium (DMEM) containing 10% inactivated fetal bovine serum.
MC38-hPD-L1 cells resuspended in PBS were inoculated subcutaneously into the right flank of B-hPD-L1 mice at a volume of 5×10^5 cells/0.1 mL per mouse. When the average tumor volume reached 150±50 mm^3, suitable mice were selected based on tumor volume and body weight, and were evenly distributed into each group, with 8 mice per group. Drug administration started on the day of grouping. The administration vehicle of the oral administration group was 5% DMSO+95% (20% HP-β-CD in water), while the administration vehicle of the intraperitoneal injection group was 0.9% sodium chloride injection.
Note: a. The administration volume was calculated based on the weight of the experimental animals at […]; b. The dose was 20 mg/kg within 5 days after grouping, and the dose was adjusted to 50 mg/kg starting from the 6th day; c. “p.o.” refers to oral administration, “i.p.” refers to intraperitoneal injection; d. “TIW” refers to three times a week, “BID” refers to twice a day.
Tumor growth inhibition (TGITV): TGITV (%)=[1−(Ti−T0)/(Vi−V0)][…]% (Ti: mean tumor volume of the treatment group on day i of administration, T0: mean tumor volume of the treatment group on day 0 of administration, Vi: mean tumor volume of the vehicle control group on day i of administration, V0: mean tumor volume of the vehicle control group on day 0 of administration).

Sequence of PD-1/PD-L1 (Q9NZQ7 19-290): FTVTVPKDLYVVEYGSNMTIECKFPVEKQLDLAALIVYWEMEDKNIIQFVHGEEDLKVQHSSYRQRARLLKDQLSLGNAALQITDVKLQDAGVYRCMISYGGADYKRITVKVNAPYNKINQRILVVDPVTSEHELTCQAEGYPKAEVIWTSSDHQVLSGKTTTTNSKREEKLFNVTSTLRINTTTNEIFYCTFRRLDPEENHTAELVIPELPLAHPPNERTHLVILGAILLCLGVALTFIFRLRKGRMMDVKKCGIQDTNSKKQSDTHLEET

Molecule	IC50 (PD-1/PD-L1)	other results
COc1nc(-c2cccc(-c3cccc4c3CCN4c3nccc4cc(CN5CC[C@@H](O)C5)cnc34)c2Cl)ccc1CNC[C@@H]1CCC(=O)N1 [Compound 1]	35 nM	AUC(0-inf) ([1]; po, p.o. 30 mg/kg): 18.8 µM·h; AUC(0-t) ([1]; po, p.o. 30 mg/kg): 13.7 µM·h; Cmax ([1]; po, p.o. 30 mg/kg): 1460 nM; half-life ([1]; po, p.o. 30 mg/kg): 12 h
COc1nc(-c2cccc(-c3cccc4c3CCN4c3nccc4cc(CN5CC[C@@H](O)C5)cnc34)c2Cl)cnc1CNC[C@@H]1CCC(=O)N1 [Compound 2]	16 nM	AUC(0-inf) ([1]; po, p.o. 30 mg/kg): 23 µM·h; AUC(0-t) ([1]; po, p.o. 30 mg/kg): 20.6 µM·h; Cmax ([1]; po, p.o. 30 mg/kg): 1960 nM; half-life ([1]; po, p.o. 30 mg/kg): 6.9 h
COc1nc(-c2cccc(-c3cccc4c3CCN4c3nc(C(F)F)nc4cc(CN5CC[C@@H](O)C5)cnc34)c2Cl)ccc1CNC[C@@H]1CCC(=O)N1 [Compound 3]	4.7 nM	–
COc1nc(-c2cccc(-c3cccc4c3CCN4c3nc(C(F)F)nc4cc(CN5CC[C@@H](O)C5)cnc34)c2Cl)cnc1CNC[C@@H]1CCC(=O)N1 [Compound 4]	4.5 nM	Tumor growth inhibition TGITV (%) (MC38-hPD-L1 colon cancer): 86.1%
N#CCOc1nc(-c2cccc(-c3cccc4c3CCN4c3nc(C(F)F)nc4cc(CN5CC[C@@H](O)C5)cnc34)c2Cl)ccc1CNC[C@@H]1CCC(=O)N1 [Compound 7]	3 nM	–
N#CCOc1nc(-c2cccc(-c3cccc4c3CCN4c3nc(C(F)F)nc4cc(CN5CC[C@@H](C(=O)O)C5)cnc34)c2Cl)ccc1CNC[C@@H]1CCC(=O)N1 [Compound 8]	3.9 nM	–
COc1nc(-c2cccc(-c3cccc4c3CCN4c3nc(C(F)F)nc4cc(CN5CC[C@@H](C(=O)O)C5)cnc34)c2Cl)ccc1CNC[C@@H]1CCC(=O)N1 [Compound 9]	4.4 nM	–
COc1nc(-c2cccc(-c3cccc4c3CCN4c3nc(C(F)F)nc4cc(CN5CC[C@@H](O)C5)cnc34)c2Cl)cnc1CN1CCC(C)(C(=O)O)C1 (stereo partly drawn) [Compound 11]	24.6 nM	–
COc1nc(-c2cccc(-c3cccc4c3CCN4c3nc(C(F)F)nc4cc(CN5CC[C@@H](O)C5)cnc34)c2Cl)cnc1CN1CC[C@@H](O)C1 [Compound 12]	10.9 nM	–
COc1nc(-c2cccc(-c3cccc4c3CCN4c3nc(C(F)F)nc4cc(CN5CC[C@@H](O)C5)cnc34)c2Cl)cnc1CNC[C@H](C(=O)O)C(C)C [Compound 13]	19 nM	–
COc1nc(-c2cccc(-c3cccc4c3CCN4c3nc(C(F)F)nc4cc(CN5CC[C@@H](O)C5)cnc34)c2Cl)cnc1CNCC(C)(C)C(=O)O [Compound 14]	10.7 nM	–
COc1nc(-c2cccc(-c3cccc4c3CCN4c3nc(C(F)F)nc4cc(CN5CC[C@@H](O)C5)cnc34)c2Cl)cnc1CN1CCC[C@H]1CC(=O)O [Compound 15]	35.1 nM	–
COc1nc(-c2cccc(-c3cccc4c3CCN4c3nc(C(F)F)nc4cc(CN5CC[C@@H](O)C5)cnc34)c2Cl)ccc1CN1CCC(C)(C(=O)O)C1 (stereo partly drawn) [Compound 16]	9.2 nM	–
N#CCOc1nc(-c2cccc(-c3cccc4c3CCN4c3nc(C(F)F)nc4cc(CN5CC[C@@H](O)C5)cnc34)c2Cl)ccc1CN1CC[C@@H](C(=O)O)C1 [Compound 17]	7.5 nM	–
COc1nc(-c2cccc(-c3cccc4c3CCN4c3nc(C(F)F)nc4cc(CN5CCC(C)(O)C5)cnc34)c2Cl)cnc1CNC[C@@H]1CCC(=O)N1 (stereo partly drawn) [Compound 18]	3.5 nM	–
COc1nc(-c2cccc(-c3cccc4c3CCN4c3nc(C(F)F)nc4cc(CN5CC[C@@H](O)C5)cnc34)c2C)cnc1CN1CC[C@@H](C(=O)O)C1 [Compound 19]	30.7 nM	–
COc1nc(-c2cccc(-c3cccc4c3CCN4c3nc(C(F)F)nc4cc(CN5CC[C@@H](O)C5)cnc34)c2C)cnc1CN1CCC(C)(C(=O)O)C1 (stereo partly drawn) [Compound 20]	42.7 nM	–
COc1nc(-c2cccc(-c3cccc4c3CCN4c3nc(C(F)F)nc4cc(CN5C[C@@H](O)[C@H](O)C5)cnc34)c2Cl)cnc1CNC[C@@H]1COC(=O)N1 [Compound 22]	22.6 nM	–
COc1nc(-c2cccc(-c3cccc4c3CCN4c3nc(C(F)F)nc4cc(CN5CC[C@@H](O)C5)cnc34)c2C)ccc1CN1CC[C@@](C)(C(=O)O)C1 [Compound 23]	32.6 nM	–
COc1nc(-c2cccc(-c3cccc4c3CCN4c3nc(C(F)F)nc4cc(CN5CC[C@@H](O)C5)cnc34)c2C)ccc1CN1CC[C@](C)(C(=O)O)C1 [Compound 24]	32.6 nM	–
Cc1c(-c2nc3cc(CN4CC[C@@H](C(=O)O)C4)cc(C#N)c3o2)cccc1-c1cccc2c1CCN2c1nc(C(F)F)nc2cc(CN3CC[C@@H](O)C3)cnc12 [Compound 27]	6.71 nM	Tumor growth inhibition TGITV (%) (MC38-hPD-L1 colon cancer): 86.1%; AUC(0-inf) ([1]; iv, i.v. 1 mg/kg): 2.1 µM·h; AUC(0-t) ([1]; iv, i.v. 1 mg/kg): 1.65 µM·h; clearance ([1]; iv, i.v. 1 mg/kg): 10.6 mL/min/kg; half-life ([1]; iv, i.v. 1 mg/kg): 12.5 h; Vd ([1]; iv, i.v. 1 mg/kg, read-out: Vdss): 8.97 L/kg; bioavailability ([1]; oral, p.o. 10 mg/kg vs i.v. 1 mg/kg): 46.3%; AUC(0-inf) ([1]; po, p.o. 10 mg/kg): 9.73 µM·h; AUC(0-t) ([1]; po, p.o. 10 mg/kg): 8.91 µM·h; Cmax ([1]; po, p.o. 10 mg/kg): 680 nM; Tmax ([1]; po, p.o. 10 mg/kg): 3.33 h; half-life ([1]; po, p.o. 10 mg/kg): 6.23 h
N#Cc1cc(CN2CC[C@@H](C(=O)O)C2)cc2nc(-c3cccc(-c4cccc5c4CCN5c4nc(C(F)F)nc5cc(CN6CC[C@@H](O)C6)cnc45)c3Cl)oc12 [Compound 28]	4.67 nM	–
Cc1c(-c2nc3cc(CN4CC[C@@H](C(=O)O)C4)cnc3o2)cccc1-c1cccc2c1CCN2c1nc(C(F)F)nc2cc(CN3CC[C@@H](O)C3)cnc12 [Compound 29]	6.03 nM	–
Cc1c(-c2nc3cc(CN4CC[C@@](C)(C(=O)O)C4)cnc3o2)cccc1-c1cccc2c1CCN2c1nc(C(F)F)nc2cc(CN3CC[C@@H](O)C3)cnc12 [Compound 30]	14.5 nM	–
Cc1c(-c2nc3cc(CN4CC[C@@H](O)C4)cc(C#N)c3o2)cccc1-c1cccc2c1CCN2c1nc(C(F)F)nc2cc(CN3CC[C@@H](C(=O)O)C3)cnc12 [Compound 32]	8.98 nM	–
Cc1c(-c2nc3cc(CN4CC[C@@](C)(O)C4)cc(C#N)c3o2)cccc1-c1cccc2c1CCN2c1nc(C(F)F)nc2cc(CN3CC[C@@H](C(=O)O)C3)cnc12 [Compound 33]	13.6 nM	–
Atezolizumab: PD-L1 monoclonal antibody, approved for urothelial carcinoma and non-small cell lung cancer [reference compound]	–	Tumor growth inhibition TGITV (%) (MC38-hPD-L1 colon cancer): 88.4%
